Assay results: patent US12486259B2, “FXR agonist having pyrazine structure, and preparation method and use” (JIANGSU TASLY DIYI PHARMACEUTICAL CO., LTD., priority 2020, dated 2025)

Tests used:
in vitro = conditions: human; for efflux ratio: Caco-2; for Papp B→A: Caco-2, Papp B-A; for recovery: Caco-2, Recovery rate A-B
Experimental: The bi-directional transport of target compounds from apical side (AP) to basolateral side (BL) and from BL side to AP side is studied by using human colon adenocarcinoma cell line Caco-2 monolayer model. The transport parameters, apparent permeability coefficient (Papp) and efflux ratio are calculated by quantitative analysis with high performance liquid chromatography (HPLC).

[1] = system: C57/BL6 mice fed MCD diet; assay: Pharmacodynamic test in methionine-choline deficient diet (MCD) model of non-alcoholic fatty liver disease; format: in vivo; conditions: for Weight, 0 week / Food intake, 1 week / Weight, 1 week / Food intake, 2 weeks / Weight, 2 weeks / Food intake, 3 weeks / Weight, 3 weeks / Food intake, 4 weeks / Weight, 4 week / liver weight / liver/body weight / ALT, 3 weeks / AST, 3 weeks / ALT, 4 weeks / AST, 4 weeks / HDL (blood lipid) / LDL (blood lipid) / TC (blood lipid) / TG (blood lipid) / HE score / Sirius red staining area / liver TC / liver TG: MCD mice, obeticholic acid 40 mpk; for Weight, 0 week / Weight, 1 week / Weight, 2 weeks / Weight, 3 weeks / Weight, 4 week: TM compounds 30 mpk, once daily by gavage; for Food intake, 1 week / Food intake, 2 weeks / Food intake, 3 weeks / Food intake, 4 weeks / liver weight / liver/body weight / ALT, 3 weeks / AST, 3 weeks / ALT, 4 weeks / AST, 4 weeks / HDL (blood lipid) / LDL (blood lipid) / TC (blood lipid) / TG (blood lipid) / HE score / Sirius red staining area / liver TC / liver TG: TM 30 mpk; for Food intake, 1 week / Food intake, 2 weeks / Food intake, 3 weeks / Food intake, 4 weeks / ALT, 3 weeks / AST, 3 weeks / ALT, 4 weeks / AST, 4 weeks: gavage; for Food intake, 4 weeks / Weight, 4 week / ALT, 4 weeks / AST, 4 weeks / HE score / Sirius red staining area: 4 weeks; for liver weight / liver/body weight / HDL (blood lipid) / LDL (blood lipid) / TC (blood lipid) / TG (blood lipid) / liver TC / liver TG: after 4 weeks; for ALT, 3 weeks / AST, 3 weeks / ALT, 4 weeks / AST, 4 weeks / HDL (blood lipid) / LDL (blood lipid) / TC (blood lipid) / TG (blood lipid): blood; for HE score: liver pathology score (Table 12 criteria); for Sirius red staining area / liver TC / liver TG: liver; for blood lipid levels (in words) / liver triglyceride and cholesterol content (in words) / liver weight and liver/body weight (in words): after 4 weeks of MCD and compounds treatment; for ALT and AST compared to the model group (in words): three weeks after MCD and compounds treatment
Experimental: Animal strain: C57/BL6, Animal Grade: SPF Grade, Gender: male, Animal Age: 8 weeks old, Animals Received Date: 2018 Sep. 28, Animal Source: Shanghai Lingchang Biotechnology Co. Ltd., Animal Certificate No: SCXK (Shanghai)2013-0018 2013001836799, Mouse feeding Environment: temperature 20-26° C., humidity 40-70%, 12 hour day and night cycle.
5% Solutol HS15/Normal saline: after Solutol HS15 (polyethylene glycol 15 hydroxystearate solubilizer) is dissolved in a water bath at 37° C., 5 ml of it is dissolved in 100 ml of normal saline, thoroughly stirred for later use.
Obeticholic acid/5% Solutol HS15/Normal saline: 0.15 ml Solutol HS15 is added to accurately weighed 12 mg obeticholic acid to fully dissolve it, and 2.85 ml normal saline is added, vigorously mixed and dissolved by the ultrasound. • TM-01 Group/5% Solutol HS15/Normal saline: 2.5 ml of 6 mg/ml TM-01 suspension is taken, 2.5 ml of 5% Solutol HS15/normal saline is added, and the mixture is mixed well. • TM-02 Group/5% Solutol HS15/Normal saline: 2.5 ml of 6 mg/ml TM-02 suspension is taken, 2.5 ml of 5% Solutol HS15/normal saline is added, and the mixture is mixed well. • TM-06 Group/5% Solutol HS15/Normal saline: 2.5 ml of 6 mg/ml TM-06 suspension is taken, 2.5 ml of 5% Solutol HS15/Normal saline is added, and the mixture is mixed well. • TM-09 Group/5% Solutol HS15/Normal saline: 2.5 ml of 6 mg/ml TM-09 suspension is taken, 2.5 ml of 5% Solutol HS15/Normal saline is added, and the mixture is mixed well.
Menstruum and test compounds are administered by gavage at a dose volume of 10 ml/kg;
After reaching the animal house, 70 8-week-old C57/BL6 mice are fed adaptively and randomly divided into 7 groups according to body weight after the average body weight reaches 23 g. They are given the model feed. The first group receives the control diet MCS and the remaining groups receive the MCD diet, while each group of mice receives compound treatment as follows: • Group 1. Control Group: MCS, menstruum, administered once daily by gavage; • Group 2. Model Group: MCD, menstruum, administered once daily by gavage; • Group 3. Obeticholic acid group: MCD, 40 mpk obeticholic acid, administered once daily by gavage; • Group 4. TM-01 Group: MCD, 30 mpk TM-01, administered once daily by gavage; • Group 5. TM-02 Group: MCD, 30 mpk TM-02, administered once daily by gavage; • Group 6. TM-06 Group: MCD, 30 mpk TM-06, administered once daily by gavage; • Group 7. TM-09 Group: MCD, 30 mpk TM-09, administered once daily by gavage; 2.4 Experimental Methods
Body weight and food intake are measured weekly during the experiment. Twenty-one days after administration, tail tips are bled with microcapillaries for AST, ALT measurements. Twenty-eight days after administration, mice are terminated, hearts are bled, and liver tissues are collected and weighed. One portion is snap frozen with liquid nitrogen for subsequent analysis and the other portion are fixed for pathological analysis.
Mouse blood is centrifuged at 5000 rpm for 10 minutes and supernatants are collected for determination of TG (triglycerides), TC (total cholesterol), HDL (high density lipoprotein), LDL (low density lipoprotein), AST (aspartate aminotransferase) and ALT (alanine aminotransferase).
AST and ALT after administration for three and four weeks are determined according to the instructions of kit. The blood lipid index 4 weeks after administration is sent to Adicon Medical Laboratory Co. Ltd. for detection.
The livers are removed from −80° C., homogenized in PBS (phosphate buffered saline), extracted with chloroform methanol organic phase, and subjected to TC and TG assays using the kit, normalized for protein content.
Four weeks after administration, the mice are anesthetized. The heart is bled, the liver is isolated and weighed. The right lobe is snapfrozen with liquid nitrogen and stored at −80° C. for liver lipid analysis. The left lobe is isolated and fixed in 10% formalin for subsequent HE and Sirius Red staining. […]

[2] = Caco-2, Papp, A-to-B values (highly permeable substrates)

| Compound | efflux ratio (in vitro) | Papp A→B (in vitro; Caco-2, Papp A-B) [×10⁻⁶ cm/s] | Papp A→B (in vitro; Caco-2, Papp A-B, Average) [×10⁻⁶ cm/s] | Papp A→B (in vitro; Caco-2, Papp A-B, Sample-01) [×10⁻⁶ cm/s] | Papp A→B (in vitro; Caco-2, Papp A-B, Sample-02) [×10⁻⁶ cm/s] | Papp B→A (in vitro) [×10⁻⁶ cm/s] | Papp A→B (in vitro; [2]) [×10⁻⁶ cm/s] | recovery (in vitro; Average) [%] | recovery (in vitro; Sample-01) [%] | recovery (in vitro; Sample-02) [%] | Weight, 0 week [1] [g] | Food intake, 1 week [1] [g] | Weight, 1 week [1] [g] | Food intake, 2 weeks [1] [g] | Weight, 2 weeks [1] [g] | Food intake, 3 weeks [1] [g] | Weight, 3 weeks [1] [g] | Food intake, 4 weeks [1] [g] | Weight, 4 week [1] [g] | liver weight [1] [g] | further results |
| --- | --- | --- | --- | --- | --- | --- | --- | --- | --- | --- | --- | --- | --- | --- | --- | --- | --- | --- | --- | --- | --- |
| CC(C)c1onc(-c2c(Cl)cccc2Cl)c1COc1cnc(C2(O)CC(c3cccc(C(=O)O)c3)C2)cn1 (centres unmarked) [TM-06, 3-(3-(5-(5-isopropyl-3-(2,6-dichlorophenyl)isoxazole-4-ylmethoxy)-2-pyrazine)-1-hydroxycyclobutane) benzoic acid] | 5.12 | 7.54 | 7.17 | 7.86 | 6.48 | 38.6 | > 2.5 | 74.2 | 81 | 67.3 | 23.75 ± 0.27 | 2.356 ± 0.213 | 21.36 ± 0.27 | 2.664 ± 0.194 | 18.29 ± 0.28 | 2.093 ± 0.250 | 16.41 ± 0.25 | 1.932 ± 0.137 | 15.70 ± 0.22 | 0.67 ± 0.03 | liver/body weight [1]: 4.23 ± 0.13 %; ALT, 3 weeks [1]: 48.97 ± 26.07 U/L; AST, 3 weeks [1]: 52.14 ± 18.73 U/L; ALT, 4 weeks [1]: 49.13 ± 33.04 U/L; AST, 4 weeks [1]: 45.23 ± 13.21 U/L; HDL (blood lipid) [1]: 0.42 ± 0.06 mmol/L; LDL (blood lipid) [1]: 3.01 ± 0.09 mmol/L; TC (blood lipid) [1]: 0.97 ± 0.16 mmol/L; TG (blood lipid) [1]: 0.59 ± 0.02 mmol/L; HE score [1]: 1.6; Sirius red staining area [1]: 0.421 ± 0.081%; liver TC [1]: 38.2 ± 35 µmol/g protein; liver TG [1]: 304 ± 46.5 µmol/g protein; blood lipid levels (in words) [1]: different reductions in blood lipids; liver triglyceride and cholesterol content (in words) [1]: different lowering effects; liver weight and liver/body weight (in words) [1]: significantly increases mouse liver weight and liver/body weight; ALT and AST compared to the model group (in words) [1]: significantly reduced |
| Cc1cc(C(=O)O)cc(C2CC(O)(c3cnc(OCc4c(-c5c(Cl)cccc5Cl)noc4C(C)C)cn3)C2)c1 (centres unmarked) [TM-09, 3-(3-(5-((3-(2,6-dichlorophenyl)-5-isopropylisoxazol-4-yl)methoxy)pyrazine-2-yl)-3-hydroxycyclobutyl)-5-methyl benzoic acid] | 4.22 | 6.91 | 8.75 | 8.46 | 9.05 | 29.2 | > 2.5 | 81.4 | 80.9 | 82 | 23.60 ± 0.29 | 2.364 ± 0.186 | 21.26 ± 0.34 | 2.707 ± 0.187 | 19.29 ± 0.39 | 2.284 ± 0.342 | 17.18 ± 0.31 | 2.109 ± 0.661 | 15.90 ± 0.31 | 0.74 ± 0.04 | liver/body weight [1]: 4.98 ± 0.25 %; ALT, 3 weeks [1]: 40.27 ± 21.48 U/L; AST, 3 weeks [1]: 45.04 ± 12.08 U/L; ALT, 4 weeks [1]: 14.30 ± 4.19 U/L; AST, 4 weeks [1]: 38.40 ± 4.19 U/L; HDL (blood lipid) [1]: 0.56 ± 0.02 mmol/L; LDL (blood lipid) [1]: 2.52 ± 0.07 mmol/L; TC (blood lipid) [1]: 0.86 ± 0.09 mmol/L; TG (blood lipid) [1]: 0.54 ± 0.04 mmol/L; HE score [1]: 1.1; Sirius red staining area [1]: 0.392 ± 0.057 %; liver TC [1]: 37.7 ± 3.65 µmol/g protein; liver TG [1]: 232 ± 18.4 µmol/g protein; blood lipid levels (in words) [1]: different reductions in blood lipids; liver triglyceride and cholesterol content (in words) [1]: significant lowering effect on liver triglyceride and cholesterol levels; liver weight and liver/body weight (in words) [1]: significantly increases mouse liver weight and liver/body weight; ALT and AST compared to the model group (in words) [1]: significantly reduced |
